pIC50: −log10 of the molar value.
Key:
[1] = tested on: Rattus norvegicus; assay: Inhibition of thrombin-induced platelet aggregation in Sprague-Dawley rat at 3 mg/ml administered for 4 days relative to control; type: functional
[2] = tested on: Rattus norvegicus; assay: Anticoagulant activity in Sprague-Dawley rat plasma assessed as prothrombin time at 3 mg/ml administered for 4 days; type: functional
[3] = tested on: Rattus norvegicus; assay: Anticoagulant activity in Sprague-Dawley rat plasma assessed as activated partial […] time at 3 mg/ml administered for 4 days; type: functional
[4] = tested on: Plasma; assay: Anticoagulant activity in Sprague-Dawley rat plasma assessed as thrombin time at 3 mg/ml administered for 4 days; type: functional
[5] = tested on: Rattus norvegicus; assay: Anticoagulant activity in Sprague-Dawley rat plasma assessed as fibrinogen level at 3 mg/ml administered for 4 days; type: functional
[6] = tested on: Rattus norvegicus; assay: Inhibition of arterial/venous thromboembolic weight in Sprague-Dawley rat at 3 mg/ml administered for 4 days relative to control; type: functional
[7] = biological target: Prothrombin (Homo sapiens, UniProt P00734); assay: Inhibition of human thrombin using Ac-FVR-AMC as substrate incubated for 10 mins prior to substrate addition measured for 10 min by fluorescence assay

pIC50 [7] | SMILES | other results
– | CCCCCCOC(=O)/N=C(/N)c1ccc(NCc2nc3cc(C(=O)N(CCC(=O)OCC)c4ccccn4)ccc3n2C)c(F)c1 | inhibition (INH) [1]: 53.8%; PT [2]: 12.28 s; APTT [3]: 25.43 s; TT [4]: 137.3 s; Activity [5]: 1.939 g/L; inhibition (INH) [6]: 73%
8.08 | CCn1c(CNc2ccc(C(=N)N)cc2F)nc2cc(C(=O)N(CCC(=O)O)c3cccc(OC)c3)ccc21 | –
8.49 | Cn1c(CNc2ccc(C(=N)N)cc2)nc2cc(C(=O)N(CCC(=O)O)c3ccccc3F)ccc21 | –
8.23 | Cn1c(CNc2ccc(C(=N)N)cc2F)nc2cc(C(=O)N(CCC(=O)O)c3ccccc3)ccc21 | –
7.62 | Cc1ccc(N(CCC(=O)O)C(=O)c2ccc3c(c2)nc(CNc2ccc(C(=N)N)cc2F)n3C)nc1 | –
8.31 | CCn1c(CNc2ccc(C(=N)N)cc2F)nc2cc(C(=O)N(CCC(=O)O)c3cccc(F)c3)ccc21 | –
8.43 | CCn1c(CNc2ccc(C(=N)N)cc2F)nc2cc(C(=O)N(CCC(=O)O)c3ccccc3F)ccc21 | –
7.67 | CCn1c(CNc2ccc(C(=N)N)cc2F)nc2cc(C(=O)N(CCC(=O)O)c3ccccc3OC)ccc21 | –
7.63 | CCn1c(CNc2ccc(C(=N)N)cc2F)nc2cc(C(=O)N(CCC(=O)O)c3ccc(OC)cc3)ccc21 | –
– | CCCCCCOC(=O)NC(=N)c1ccc(NCc2nc3cc(C(=O)N(CCC(=O)OCC)c4ccccn4)ccc3n2C)cc1 [DABIGATRAN ETEXILATE] | inhibition (INH) [1]: 92.9%; PT [2]: 57.2 s; APTT [3]: 76.57 s; TT [4]: 180 s; Activity [5]: 1.561 g/L; inhibition (INH) [6]: 76%
8.25 | CCn1c(CNc2ccc(C(=N)N)cc2F)nc2cc(C(=O)N(CCC(=O)O)c3ccccc3)ccc21 | –
8.31 | Cn1c(CNc2ccc(C(=N)N)cc2F)nc2cc(C(=O)N(CCC(=O)O)c3ccccc3F)ccc21 | –
8.31 | CCn1c(CNc2ccc(C(=N)N)cc2F)nc2cc(C(=O)N(CCC(=O)O)c3ccc(F)cc3)ccc21 | –
8.14 | CCn1c(CNc2ccc(C(=N)N)cc2F)nc2cc(C(=O)N(CCC(=O)O)c3ccccc3C)ccc21 | –
8.32 | COc1cccc(N(CCC(=O)O)C(=O)c2ccc3c(c2)nc(CNc2ccc(C(=N)N)cc2F)n3C)c1 | –
7.87 | CCn1c(CNc2ccc(C(=N)N)cc2F)nc2cc(C(=O)N(CCC(=O)O)c3ccc(Cl)cc3)ccc21 | –
7.72 | CCn1c(CNc2ccc(C(=N)N)cc2F)nc2cc(C(=O)N(CCC(=O)O)c3ccc(C)cn3)ccc21 | –
8.27 | Cn1c(CNc2ccc(C(=N)N)cc2F)nc2cc(C(=O)N(CCC(=O)O)c3ccc(F)cc3)ccc21 | –
– | CCCCCCOC(=O)/N=C(/N)c1ccc(NCc2nc3cc(C(=O)N(CCC(=O)OCC)c4ccccc4F)ccc3n2C)cc1 | inhibition (INH) [1]: 10.4%; PT [2]: 11.82 s; APTT [3]: 24.33 s; TT [4]: 180 s; Activity [5]: 1.853 g/L; inhibition (INH) [6]: 37%
7.79 | COc1ccc(N(CCC(=O)O)C(=O)c2ccc3c(c2)nc(CNc2ccc(C(=N)N)cc2F)n3C)cc1 | –
8.47 | CCn1c(CNc2ccc(C(=N)N)cc2F)nc2cc(C(=O)N(CCC(=O)O)c3ccccn3)ccc21 | –
8.34 | Cn1c(CNc2ccc(C(=N)N)cc2F)nc2cc(C(=O)N(CCC(=O)O)c3cccc(F)c3)ccc21 | –
8.21 | Cc1ccccc1N(CCC(=O)O)C(=O)c1ccc2c(c1)nc(CNc1ccc(C(=N)N)cc1F)n2C | –
8.46 | Cn1c(CNc2ccc(C(=N)N)cc2F)nc2cc(C(=O)N(CCC(=O)O)c3ccccn3)ccc21 | –

— ChEMBL document CHEMBL3414490 (Eur J Med Chem, 2015)
